Experimental data: patent US20170029388A1, “Treatment of Neurodegenerative Diseases with Asparagine Endopeptidase (AEP) Inhibitors and Compositions Related Thereto” (INTERCONTINENTAL GREAT BRANDS LLC, priority 2014, published 2017)

What was measured:
AEP = biological target: T1, AEP (Homo sapiens, UniProt Q99538); experiment: DTT reversibility assay; type: biochemical; conditions: 5x IC50 of compound, 10 mM DTT or L-cysteine
T1 construct: tested with purified active AEP, IC50 values for the top 8 candidates were found; purchased Sino Biological
T1 sequence (Q99538 18-323 limits assumed): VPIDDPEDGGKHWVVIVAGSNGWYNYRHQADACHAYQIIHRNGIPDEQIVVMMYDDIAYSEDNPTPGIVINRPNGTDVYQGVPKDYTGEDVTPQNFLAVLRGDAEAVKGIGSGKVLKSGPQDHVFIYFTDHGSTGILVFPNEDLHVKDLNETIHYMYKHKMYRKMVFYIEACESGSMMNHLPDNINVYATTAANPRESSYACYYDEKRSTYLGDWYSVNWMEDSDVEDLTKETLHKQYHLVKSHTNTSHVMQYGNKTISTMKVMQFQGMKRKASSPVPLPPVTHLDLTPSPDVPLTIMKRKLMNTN
Experimental: AEP was reacted with specified inhibitor, after 15 min 10 mM DTT or L-cysteine was added to the reaction and the fluorescent signal was read for an additional 15 min. At the end of the second 15 min incubation, the percentage of product formed in the presence of each compound was determined in comparison to the DMSO control reaction.
Although it is not intended that embodiments of this disclosure be limited by any particular mechanism, to gain additional insight into the mechanism utilized by the inhibitors for abrogation of AEP activity, their reversibility in the presence of free thiols was determined. The addition of a strong reducing agent, such as DTT, or a weaker reducing agent, L-cysteine, to an inhibited reaction can be used to out-compete the inhibitory agent and restore catalytic activity to an enzyme with an active-site thiol residue. Here, a similar approach was used by adding a reducing agent, either DTT or L-cysteine, to a reaction, in which AEP had been incubated with a specified inhibitor, in an attempt to reverse the effects of the inhibitor. […] For compounds BB1 and 38, this increase in enzymatic activity may be due to the reduction of a disulfide linkage between the inhibitor and the enzyme, since these compounds contain thiols. Compound 10 contains a thiocyanate and may undergo nucleophilic attack by the enzyme's active-site thiolate to form a thioimidate enzyme-inhibitor complex. Under acidic conditions, this complex is reducible by either a strong reducing agent, such as DTT, or the weaker L-cysteine.
Simultaneously, 10 mM (final concentration) dithiothreitol (DTT) or L-cysteine was added to each reaction and incubated for an additional 15 min. At the end of the second 15 min incubation time, the fluorescence was measured for each sample. The amount of product formed in the presence of DMSO was used to determine the percentage of AEP activity in the presence of each drug.

CYP3A4 = CYP3A4 (Homo sapiens, UniProt P08684); experiment: CYP inhibition screening, CYP3A4-Midazolam; type: in vitro ADME
Chain of CYP3A4 (P08684 whole entry): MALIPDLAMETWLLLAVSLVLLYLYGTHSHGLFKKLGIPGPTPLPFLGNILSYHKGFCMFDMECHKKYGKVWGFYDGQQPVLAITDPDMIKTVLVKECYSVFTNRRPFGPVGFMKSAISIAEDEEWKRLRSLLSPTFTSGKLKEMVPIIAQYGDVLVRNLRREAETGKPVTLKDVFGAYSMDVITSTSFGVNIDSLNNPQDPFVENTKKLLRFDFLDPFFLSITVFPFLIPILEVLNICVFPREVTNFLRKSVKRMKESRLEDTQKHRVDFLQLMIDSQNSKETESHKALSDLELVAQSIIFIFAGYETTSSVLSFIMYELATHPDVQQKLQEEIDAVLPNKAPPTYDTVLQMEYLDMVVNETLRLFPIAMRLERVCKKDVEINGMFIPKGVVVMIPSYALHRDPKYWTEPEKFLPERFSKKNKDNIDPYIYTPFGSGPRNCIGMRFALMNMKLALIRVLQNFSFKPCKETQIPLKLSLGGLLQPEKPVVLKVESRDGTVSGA

CYP2C9 = CYP2C9 (Homo sapiens, UniProt P11712); experiment: CYP inhibition screening, CYP2C9; type: in vitro ADME
Chain of CYP2C9 (P11712 whole entry): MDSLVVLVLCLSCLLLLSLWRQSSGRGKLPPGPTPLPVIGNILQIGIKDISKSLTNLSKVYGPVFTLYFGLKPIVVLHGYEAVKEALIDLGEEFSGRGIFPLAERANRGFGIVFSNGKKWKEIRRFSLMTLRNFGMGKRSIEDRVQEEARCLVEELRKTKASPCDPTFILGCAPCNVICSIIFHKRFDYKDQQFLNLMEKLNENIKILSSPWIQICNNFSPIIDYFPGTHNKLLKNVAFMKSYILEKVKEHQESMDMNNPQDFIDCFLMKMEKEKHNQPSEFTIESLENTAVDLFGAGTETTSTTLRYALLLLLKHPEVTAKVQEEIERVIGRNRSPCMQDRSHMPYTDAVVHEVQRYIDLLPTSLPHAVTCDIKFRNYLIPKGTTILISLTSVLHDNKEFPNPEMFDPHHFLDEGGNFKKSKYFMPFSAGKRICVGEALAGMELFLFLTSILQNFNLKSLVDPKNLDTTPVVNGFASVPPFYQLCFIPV

CYP2D6 = CYP2D6 (Homo sapiens, UniProt P10635); experiment: CYP inhibition screening, CYP2D6; type: in vitro ADME
Chain of CYP2D6 (P10635 whole entry): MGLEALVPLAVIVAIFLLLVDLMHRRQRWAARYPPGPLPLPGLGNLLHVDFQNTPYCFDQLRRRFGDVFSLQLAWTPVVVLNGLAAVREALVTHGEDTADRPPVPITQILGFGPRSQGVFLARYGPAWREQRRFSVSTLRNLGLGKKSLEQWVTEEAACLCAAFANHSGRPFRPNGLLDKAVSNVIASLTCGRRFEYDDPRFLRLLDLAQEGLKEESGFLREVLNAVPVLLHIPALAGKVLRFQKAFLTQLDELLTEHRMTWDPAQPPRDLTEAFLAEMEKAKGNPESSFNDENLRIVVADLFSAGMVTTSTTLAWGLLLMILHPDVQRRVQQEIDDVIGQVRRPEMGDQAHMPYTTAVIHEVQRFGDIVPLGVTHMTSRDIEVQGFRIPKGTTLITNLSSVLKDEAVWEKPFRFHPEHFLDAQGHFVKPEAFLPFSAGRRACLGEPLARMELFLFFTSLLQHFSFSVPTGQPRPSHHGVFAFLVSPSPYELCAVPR

CYP2C19 = CYP2C19 (Homo sapiens, UniProt P33261); experiment: CYP inhibition screening, CYP2C19; type: in vitro ADME
Chain of CYP2C19 (P33261 whole entry): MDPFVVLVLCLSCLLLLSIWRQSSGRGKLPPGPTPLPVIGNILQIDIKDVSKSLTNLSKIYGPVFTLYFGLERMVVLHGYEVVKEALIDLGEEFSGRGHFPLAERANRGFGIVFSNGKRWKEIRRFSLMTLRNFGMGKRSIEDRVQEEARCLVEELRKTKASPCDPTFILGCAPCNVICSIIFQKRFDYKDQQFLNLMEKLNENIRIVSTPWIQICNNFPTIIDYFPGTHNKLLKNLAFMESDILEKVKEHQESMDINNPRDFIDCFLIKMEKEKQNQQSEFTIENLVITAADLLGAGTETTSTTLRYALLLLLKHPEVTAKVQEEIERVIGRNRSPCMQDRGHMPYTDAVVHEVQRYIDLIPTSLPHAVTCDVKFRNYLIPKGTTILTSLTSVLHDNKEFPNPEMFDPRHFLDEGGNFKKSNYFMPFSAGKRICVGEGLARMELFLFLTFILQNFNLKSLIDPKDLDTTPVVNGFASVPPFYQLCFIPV

CYP1A2 = biological target: T2, CYP1A2 (Homo sapiens, UniProt P05177); experiment: CYP inhibition screening, CYP1A2; type: in vitro ADME
T2 sequence (P05177 1-516): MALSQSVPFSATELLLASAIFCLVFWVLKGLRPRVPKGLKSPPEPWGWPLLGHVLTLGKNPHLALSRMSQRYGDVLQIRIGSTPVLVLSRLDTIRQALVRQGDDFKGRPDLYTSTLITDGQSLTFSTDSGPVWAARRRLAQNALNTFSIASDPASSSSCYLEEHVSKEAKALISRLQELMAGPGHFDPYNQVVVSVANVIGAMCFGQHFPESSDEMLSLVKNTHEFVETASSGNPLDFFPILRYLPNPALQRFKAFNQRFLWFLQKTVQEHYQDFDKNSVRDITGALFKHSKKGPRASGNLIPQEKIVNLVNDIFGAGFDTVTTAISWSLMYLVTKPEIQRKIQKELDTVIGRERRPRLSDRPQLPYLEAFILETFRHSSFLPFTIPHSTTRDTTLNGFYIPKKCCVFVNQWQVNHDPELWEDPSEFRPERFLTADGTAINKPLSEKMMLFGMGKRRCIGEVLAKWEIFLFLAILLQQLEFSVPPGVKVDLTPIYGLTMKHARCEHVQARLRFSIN

[1] = PAMPA
[2] = Liver microsomal stability, human; conditions: human liver microsomes; for Mean Remaining Parent (with NADPH): 30 min of incubation
[3] = Liver microsomal stability, mouse; conditions: mouse liver microsomes

## Sc1nnc(Nc2ccccc2)s1 [Compound BB1]
AEP
  AEP activity after addition of reducing agent (reversibility): regained a substantial amount of activity

## Nc1ccc(N2CCOCC2)c2nonc12 [Compound 11]
CYP3A4; test concentration 3 μM
  CYP inhibition, CYP3A4-Midazolam: 3.6%
CYP3A4; test concentration 10 μM
  CYP inhibition, CYP3A4-Midazolam: 8.0%
CYP2C9; test concentration 3 μM
  CYP inhibition, CYP2C9: 4.3%
CYP2C9; test concentration 10 μM
  CYP inhibition, CYP2C9: 5.6%
CYP2D6; test concentration 3 μM
  CYP inhibition, CYP2D6: 7.8%
CYP2D6; test concentration 10 μM
  CYP inhibition, CYP2D6: 21.9%
CYP2C19; test concentration 3 μM
  CYP inhibition, CYP2C19: 4.4%
CYP2C19; test concentration 10 μM
  CYP inhibition, CYP2C19: 6.8%
CYP1A2; test concentration 3 μM
  CYP inhibition, CYP1A2: 13.1%
CYP1A2; test concentration 10 μM
  CYP inhibition, CYP1A2: 37.0%
[1]
  Pe: >25 10^−6 cm · s^−1
  blood-brain barrier permeability (in words): able to cross the blood-brain barrier
[2]
  Mean Remaining Parent (NADPH-free): 93%
  Mean Remaining Parent (with NADPH): 76%
[3]
  Mean Remaining Parent (NADPH-free): 103%
  Mean Remaining Parent (with NADPH): 20%

## Cn1c(=O)[nH]c(=O)c2c1nc(S)n2CC(O)COc1ccc(Cl)cc1 (stereo not drawn) [Compound 38]
CYP3A4; test concentration 3 μM
  CYP inhibition, CYP3A4-Midazolam: 7.3%
CYP3A4; test concentration 10 μM
  CYP inhibition, CYP3A4-Midazolam: 10.4%
CYP2C9; test concentration 3 μM
  CYP inhibition, CYP2C9: 15.6%
CYP2C9; test concentration 10 μM
  CYP inhibition, CYP2C9: 17.1%
CYP2D6; test concentration 3 μM
  CYP inhibition, CYP2D6: −5.4%
CYP2D6; test concentration 10 μM
  CYP inhibition, CYP2D6: 0.9%
CYP2C19; test concentration 3 μM
  CYP inhibition, CYP2C19: −12.0%
CYP2C19; test concentration 10 μM
  CYP inhibition, CYP2C19: 9.5%
CYP1A2; test concentration 3 μM
  CYP inhibition, CYP1A2: −7.6%
CYP1A2; test concentration 10 μM
  CYP inhibition, CYP1A2: 10.5%
AEP
  AEP activity after addition of reducing agent (reversibility): regained a substantial amount of activity
[1]
  Pe: 0.007 10^−6 cm · s^−1
[2]
  Mean Remaining Parent (NADPH-free): 107%
  Mean Remaining Parent (with NADPH): 88%
[3]
  Mean Remaining Parent (NADPH-free): 99%
  Mean Remaining Parent (with NADPH): 98%
